In patent US10973784B2, “Compositions and methods for treating Alzheimer's disease and Parkinson's disease” (Biotie Therapies, Inc., priority 2016, dated 2021):
Several values for one entry are separate records, joined by “and”; a condition that tells them apart may be missing. Identical values can stand only once. Like-named read-outs stand apart in the source and are kept apart here.

Columns and labels:
[1] = Pharmacokinetic analysis of SYN120 tablets, multiple dose once daily (Example 9); type: in vivo, human; conditions: for Ae % / % Fluctuation / CL renal / half-life: arithmetic mean; for Ae %: urine; for CL renal / Cmax / AUC(0-t) / Tmax / concentration at 14 day / half-life: both sexes, human, oral; for CL renal: plasma and urine, read-out: 0-24 Clr; for Cmax / AUC(0-t) / Tmax / concentration at 14 day / half-life: plasma; for Cmax / AUC(0-t) / concentration at 14 day: geometric mean
Procedure: PK analysis in a multiple dose study was performed on 28 subjects (10 males and 18 females) on day 1 and on 27 subjects (10 males and 17 females) on day 14 who received SYN120 oral tablets. The dosing interval was once daily, approximately 40 minutes after a standard breakfast, for up to 21 days. The subjects were administered the same dose of SYN120 daily at one of the following doses: 100 mg; 300 mg; and 600 mg. The SYN120 oral tablets used in this study were the 50 mg tablets as described in Example 8.
Plasma samples were prepared from blood samples for PK analysis collected on days 1 and 14 at the following time points: 0, 0.5, 1, 1.5, 2, 3, 4, 6, 8, 12, and 24 hrs postdose. Additional blood samples were taken following administration on Day 14 at 32, 36, 48, 72, and 168 hrs (day 15 through day 21). In addition, on days 4 and 10, predose blood samples were collected, while on day 7, blood samples were collected predose and 4 hrs postdose. […] Mean plasma SYN120 concentrations at Day 1, (FIG. 7A and FIG. 7B), and at Day 14 (FIG. 8A and FIG. 8B) are also provided.

[2] = Plasma concentrations of SYN120 at 100 mg QD after titration (Example 10); type: in vivo, human; conditions: for Plasma concentration of SYN120, individual samples: 100 mg QD after titration; for Plasma concentration of SYN120, Max / Plasma concentration of SYN120, Median / Plasma concentration of SYN120, Min / Plasma concentration of SYN120, Mean: 100 mg QD
Procedure: Patients taking SYN120 are titrated from a starting dose of 20 mg SYN120 QD for the first 7 days, followed by 50 mg SYN120 QD for the next 7 days, then 100 mg SYN120 QD for the remaining portion of the study. Plasma samples are taken on study weeks 4, 8 and 16, and a shown below in Table 17.

5-HT6 receptor = 5-HT6 receptor (Homo sapiens, UniProt P50406); conditions: cited from earlier work
5-HT6 receptor, sequence (P50406 whole entry): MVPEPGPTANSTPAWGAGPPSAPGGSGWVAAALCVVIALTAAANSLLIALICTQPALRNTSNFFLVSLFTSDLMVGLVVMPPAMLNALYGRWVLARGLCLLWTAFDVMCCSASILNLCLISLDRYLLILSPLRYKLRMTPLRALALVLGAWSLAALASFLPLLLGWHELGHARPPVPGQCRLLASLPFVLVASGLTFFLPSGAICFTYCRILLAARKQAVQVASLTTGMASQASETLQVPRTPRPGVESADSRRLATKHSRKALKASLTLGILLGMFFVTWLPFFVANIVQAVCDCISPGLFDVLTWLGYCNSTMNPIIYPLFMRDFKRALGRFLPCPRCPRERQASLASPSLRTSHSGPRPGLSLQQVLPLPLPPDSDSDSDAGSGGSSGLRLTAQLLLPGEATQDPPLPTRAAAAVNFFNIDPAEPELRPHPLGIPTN

5-HT2A receptor = 5-HT2A receptor (Homo sapiens, UniProt P28223); conditions: cited from earlier work
5-HT2A receptor, sequence (P28223 whole entry): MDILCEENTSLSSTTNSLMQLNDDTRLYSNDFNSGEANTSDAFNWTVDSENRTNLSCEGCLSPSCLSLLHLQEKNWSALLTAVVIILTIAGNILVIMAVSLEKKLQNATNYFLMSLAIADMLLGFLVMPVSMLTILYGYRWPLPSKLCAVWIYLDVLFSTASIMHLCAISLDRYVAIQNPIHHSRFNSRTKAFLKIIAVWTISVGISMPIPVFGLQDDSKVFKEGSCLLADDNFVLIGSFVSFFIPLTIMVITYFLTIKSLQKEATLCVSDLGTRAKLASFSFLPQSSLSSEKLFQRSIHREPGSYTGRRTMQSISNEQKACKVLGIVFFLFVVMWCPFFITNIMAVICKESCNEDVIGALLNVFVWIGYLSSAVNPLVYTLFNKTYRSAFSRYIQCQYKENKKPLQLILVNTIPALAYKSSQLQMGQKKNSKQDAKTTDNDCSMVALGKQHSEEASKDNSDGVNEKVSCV

5-HT2B receptor = 5-HT2B receptor (Homo sapiens, UniProt P41595); conditions: cited from earlier work
5-HT2B receptor, sequence (P41595 whole entry): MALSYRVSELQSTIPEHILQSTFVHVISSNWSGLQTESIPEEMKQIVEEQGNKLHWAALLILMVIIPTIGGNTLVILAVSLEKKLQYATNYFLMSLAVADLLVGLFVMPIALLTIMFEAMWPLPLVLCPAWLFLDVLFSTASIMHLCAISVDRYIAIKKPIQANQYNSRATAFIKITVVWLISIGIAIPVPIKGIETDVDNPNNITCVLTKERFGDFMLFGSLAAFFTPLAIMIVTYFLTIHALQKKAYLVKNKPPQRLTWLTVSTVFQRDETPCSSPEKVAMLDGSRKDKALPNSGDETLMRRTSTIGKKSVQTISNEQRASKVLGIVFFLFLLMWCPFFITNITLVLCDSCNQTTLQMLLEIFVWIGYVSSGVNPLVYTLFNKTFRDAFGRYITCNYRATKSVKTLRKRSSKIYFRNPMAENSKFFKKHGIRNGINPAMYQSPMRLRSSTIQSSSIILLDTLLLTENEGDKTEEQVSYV

## NC(=O)NC[C@@H]1CCCc2cc(S(=O)(=O)c3cccc(F)c3)ccc21 [SYN120]
[1]; Day 1, 100 mg QD
  Ae %: 0.610%
[1]; Day 1, 300 mg QD
  Ae %: 0.857%
[1]; Day 1, 600 mg QD
  Ae %: 0.997%
[1]; Day 14, 100 mg QD
  % Fluctuation: 177%
  Ae %: 1.15%
  half-life: 15.4 h
[1]; Day 14, 100 mg QD, median
  Tlast: 168 h
[1]; Day 14, 300 mg QD
  % Fluctuation: 209%
  Ae %: 0.988%
  half-life: 15.5 h
[1]; Day 14, 300 mg QD, median
  Tlast: 168 h
[1]; Day 14, 600 mg QD
  % Fluctuation: 212%
  Ae %: 0.756%
[1]; Day 14, 600 mg QD, median
  Tlast: 168 h
[1]; 100 mg, Day 1, 100 mg QD
  CL renal: 1.25 mL/min
  Cmax: 0.813 µg/mL
[1]; 100 mg, Day 14, 100 mg QD
  CL renal: 1.33 mL/min
  Cmax: 1.24 µg/mL
[1]; 300 mg, Day 1, 300 mg QD
  CL renal: 1.33 mL/min
  Cmax: 2.75 µg/mL
[1]; 300 mg, Day 14, 300 mg QD
  CL renal: 1.34 mL/min
  Cmax: 3.47 µg/mL
[1]; 600 mg, Day 1, 600 mg QD
  CL renal: 1.45 mL/min
  Cmax: 5.18 µg/mL
[1]; 600 mg, Day 14, 600 mg QD
  CL renal: 1.31 mL/min
  Cmax: 5.46 µg/mL
[1]; 100 mg, Day 1, 100 mg QD, read-out: AUC0-24
  AUC(0-t): 7.78 µg·h/mL
[1]; 100 mg, Day 1, 100 mg QD, read-out: AUC0-last
  AUC(0-t): 7.78 µg·h/mL
[1]; 100 mg, Day 1, 100 mg QD, median, read-out: Tmax
  Tmax: 4 h
[1]; 100 mg, Day 14, 100 mg QD, read-out: AUC0-24
  AUC(0-t): 14.2 µg·h/mL
[1]; 100 mg, Day 14, 100 mg QD, read-out: AUC0-last
  AUC(0-t): 19.2 µg·h/mL
[1]; 100 mg, Day 14, 100 mg QD, read-out: Cmin
  concentration at 14 day: 0.201 µg/mL
[1]; 100 mg, Day 14, 100 mg QD, read-out: Css
  concentration at 14 day: 0.591 µg/mL
[1]; 100 mg, Day 14, 100 mg QD, median, read-out: Tmax
  Tmax: 3 h
[1]; 300 mg, Day 1, 300 mg QD, read-out: AUC0-24
  AUC(0-t): 29.5 µg·h/mL
[1]; 300 mg, Day 1, 300 mg QD, read-out: AUC0-last
  AUC(0-t): 29.5 µg·h/mL
[1]; 300 mg, Day 1, 300 mg QD, median, read-out: Tmax
  Tmax: 4 h
[1]; 300 mg, Day 14, 300 mg QD, read-out: AUC0-24
  AUC(0-t): 36 µg·h/mL
[1]; 300 mg, Day 14, 300 mg QD, read-out: AUC0-last
  AUC(0-t): 45.7 µg·h/mL
[1]; 300 mg, Day 14, 300 mg QD, read-out: Cmin
  concentration at 14 day: 0.357 µg/mL
[1]; 300 mg, Day 14, 300 mg QD, read-out: Css
  concentration at 14 day: 1.5 µg/mL
[1]; 300 mg, Day 14, 300 mg QD, median, read-out: Tmax
  Tmax: 3 h
[1]; 600 mg, Day 1, 600 mg QD, read-out: AUC0-24
  AUC(0-t): 59.6 µg·h/mL
[1]; 600 mg, Day 1, 600 mg QD, read-out: AUC0-last
  AUC(0-t): 59.6 µg·h/mL
[1]; 600 mg, Day 1, 600 mg QD, median, read-out: Tmax
  Tmax: 4 h
[1]; 600 mg, Day 14, 600 mg QD, read-out: AUC0-24
  AUC(0-t): 56.1 µg·h/mL
[1]; 600 mg, Day 14, 600 mg QD, read-out: AUC0-last
  AUC(0-t): 74 µg·h/mL
[1]; 600 mg, Day 14, 600 mg QD, read-out: Cmin
  concentration at 14 day: 0.52 µg/mL
[1]; 600 mg, Day 14, 600 mg QD, read-out: Css
  concentration at 14 day: 2.34 µg/mL
[1]; 600 mg, Day 14, 600 mg QD, median, read-out: Tmax
  Tmax: 3.51 h
[1]; Day 14, across dose groups, read-out: median Tmax
  Tmax: 3 to 3.51 h
[1]; Study Day 1, each dose group, read-out: median Tmax
  Tmax: 4 h
[1]; Day 14, 600 mg QD, n = 7
  half-life: 15 h
[2]; time range 0.5 h-1.5 h
  Plasma concentration of SYN120, individual samples: 1.31 µg/mL and 0.297 µg/mL and 0.116 µg/mL and 0.476 µg/mL and 0.326 µg/mL and 0.00857 µg/mL and 0.309 µg/mL
  Plasma concentration of SYN120, Max: 1.31 µg/mL
  Plasma concentration of SYN120, Median: 0.309 µg/mL
  Plasma concentration of SYN120, Min: 0.00857 µg/mL
[2]; time range 1.5 h-2.5 h
  Plasma concentration of SYN120, individual samples: 0.12 µg/mL and 0.558 µg/mL and 0.314 µg/mL and 0.705 µg/mL and 0.229 µg/mL and 0.235 µg/mL and 0.43 µg/mL and 0.581 µg/mL
  Plasma concentration of SYN120, Max: 0.705 µg/mL
  Plasma concentration of SYN120, Median: 0.372 µg/mL
  Plasma concentration of SYN120, Min: 0.12 µg/mL
[2]; time range 2.5 h-3.5 h
  Plasma concentration of SYN120, individual samples: 1.66 µg/mL and 0.355 µg/mL and 0.473 µg/mL and 0.41 µg/mL and 1.22 µg/mL and 1.62 µg/mL and 0.767 µg/mL
  Plasma concentration of SYN120, Max: 1.66 µg/mL
  Plasma concentration of SYN120, Median: 0.767 µg/mL
  Plasma concentration of SYN120, Min: 0.355 µg/mL
[2]; time range 3.5 h-4.5 h
  Plasma concentration of SYN120, individual samples: 1.33 µg/mL and 0.855 µg/mL and 0.0242 µg/mL and 0.467 µg/mL and 1.19 µg/mL and 1.47 µg/mL
  Plasma concentration of SYN120, Max: 1.47 µg/mL
  Plasma concentration of SYN120, Median: 1.023 µg/mL
  Plasma concentration of SYN120, Min: 0.0242 µg/mL
[2]; time range 4.5 h-7.5 h
  Plasma concentration of SYN120, individual samples: 1.16 µg/mL and 0.124 µg/mL and 0.344 µg/mL and 0.989 µg/mL and 1.21 µg/mL and 0.85 µg/mL
  Plasma concentration of SYN120, Max: 1.21 µg/mL
  Plasma concentration of SYN120, Median: 0.92 µg/mL
  Plasma concentration of SYN120, Min: 0.124 µg/mL
[2]; time range 0.5 h-1.5 h, n 7
  Plasma concentration of SYN120, Mean: 0.4061 µg/mL
[2]; time range 1.5 h-2.5 h, n 8
  Plasma concentration of SYN120, Mean: 0.3965 µg/mL
[2]; time range 2.5 h-3.5 h, n 7
  Plasma concentration of SYN120, Mean: 0.9293 µg/mL
[2]; time range 3.5 h-4.5 h, n 6
  Plasma concentration of SYN120, Mean: 0.8894 µg/mL
[2]; time range 4.5 h-7.5 h, n 6
  Plasma concentration of SYN120, Mean: 0.7795 µg/mL
[2]; once per day maintenance dosing
  time of peak plasma level after administration: 1 to 4 h
5-HT6 receptor
  pKi: 9.6
5-HT2A receptor
  pKi: 7.8
5-HT2B receptor
  pKi: 7.7
